According to the supplement of paper PMC11127212:

How the values were obtained:
[1] = retention time on BEH HILIC column (20 min gradient, 0.4 mL/min); higher = later elution; details: LC: HILIC
Method: (§1)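 Reference standards (20-100 uM) were separated by HILIC UPLC (BEH HILIC, 45 °C): acidic pH 3.0 ammonium formate/formic acid for ESI+ and basic pH 9.0 ammonium acetate/ammonia for ESI-. They were analysed on a Synapt G2-Si traveling-wave IMS-QTOF with nitrogen drift gas (WH 30 V; WV 800 m/s in ESI+ and 1000 m/s in ESI-).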

[2] = collision cross section (TWIMS, N2) of ion [M-H]-; higher = larger gas-phase ion cross section; details: ionization: ESI negative; LC: HILIC, pH 9.0 ammonium acetate
Method: as §1

[3] = collision cross section (TWIMS, N2) of ion [M+H-H2O]+; higher = larger gas-phase ion cross section; details: ionization: ESI positive; LC: HILIC, pH 3.0 ammonium formate
Method: as §1, with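 “ESI-). CCS (TWCCSN2, Å2) was calibrated with Major Mix IMS/TOF and LockCCS leucine enkephalin; inter-day RSD was <1%.” for “ESI-).”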

[4] = collision cross section (TWIMS, N2) of ion [M+H]+; higher = larger gas-phase ion cross section; details: ionization: ESI positive; LC: HILIC, pH 3.0 ammonium formate
Method: as §1

[5] = collision cross section (TWIMS, N2) of ion [M+Na]+; higher = larger gas-phase ion cross section; details: ionization: ESI positive; LC: HILIC, pH 3.0 ammonium formate
Method: as §1, with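 “ESI-). CCS (TWCCSN2, Å2) was calibrated with Major Mix IMS/TOF and LockCCS leucine enkephalin; inter-day RSD was <1%.” for “ESI-).”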

[6] = ionization: ESI negative, pH 9.0 ammonium acetate
[7] = ionization: ESI positive, pH 3.0 ammonium formate

SMILES	retention time on BEH HILIC column [1, 6]	retention time on BEH HILIC column [1, 7]	collision cross section [2]	collision cross section [3]	collision cross section [4]	collision cross section [5]
Nc1c(O)cccc1C(=O)O [3-hydroxyanthranilic acid]	1.12 min	0.9 min	126.47 Å²	121.78 Å²		
O=C(O)c1ccc(O)cc1 [4-hydroxybenzoic acid]	0.67 min	0.73 min	123.01 Å²	124.91 Å²		
Nc1ncnc2nc[nH]c12 [Adenine]	2.71 min	2.59 min	126.29 Å²		125.13 Å²	134.02 Å²
N=C(NCCC[C@H](N)C(=O)O)N[C@@H](CC(=O)O)C(=O)O [Arginosuccinic acid]	12.7 min	11.2 min	164.65 Å²	160.05 Å²		
NCCC(=O)N[C@@H](Cc1cnc[nH]1)C(=O)O [Carnosine]	11.7 min	11.8 min	154.88 Å²		151.65 Å²	152.28 Å²
C/C(=C/C(=O)O)C(=O)O [Citraconic acid]	0.99 min	0.99 min	120.54 Å²	124.18 Å²		
CN(CC(=O)O)C(=N)N [Creatine]		7.83 min		122.05 Å²	122.23 Å²	
CN1CC(=O)NC1=N [Creatinine]	1.98 min	2.79 min	120.56 Å²		120.17 Å²	129.07 Å²
CNC[C@H](O)c1ccc(O)c(O)c1 [Epinephrine]	5.61 min	5.91 min	140.21 Å²	136.45 Å²		
Nc1nc(=O)c2nc(CNc3ccc(C(=O)N[C@@H](CCC(=O)O)C(=O)O)cc3)cnc2[nH]1 [Folic acid]	11.4 min	6.7 min	187.54 Å²		196.77 Å²	201.44 Å²
O=C(O)c1cc(O)ccc1O [Gentisic acid]	1.41 min	1.38 min	126.41 Å²	126.57 Å²		
O=C(O)[C@H]1O[C@H](O)[C@H](O)[C@@H](O)[C@@H]1O [Glucuronic acid]	8.46 min	0.72 min	129.91 Å²	134.39 Å²		
O=C(O)CNC(=O)c1ccccc1 [Hippuric acid]	2.21 min	2.16 min	139.07 Å²		138.49 Å²	146.37 Å²
O=C(O)[C@@H]1C[C@@H](O)CN1 [Hydroxyproline]	7.55 min	7.47 min	126.62 Å²	123.91 Å²	125.85 Å²	
OC[C@H]1O[C@@H](n2cnc3c(O)ncnc32)[C@H](O)[C@@H]1O [Inosine]	3.4 min	2.31 min	159.47 Å²		155.86 Å²	166.42 Å²
Nc1ccccc1C(=O)C[C@H](N)C(=O)O [L-kynurenine]		5.74 min		140.8 Å²	146.07 Å²	149.75 Å²
CSCC[C@H](N)C(=O)O [L-methionine]	6.8 min	6.59 min	132.57 Å²		131.48 Å²	135.16 Å²
O=C(O)[C@@H]1CCCN1 [L-proline]	7.23 min	7.22 min	116.46 Å²		123.7 Å²	130.65 Å²
N[C@@H](Cc1ccc(O)cc1)C(=O)O [L-tyrosine]	6.79 min	6.67 min	141.65 Å²		141.09 Å²	143.2 Å²
O=C(O)/C=C\C(=O)O [Maleic acid]		0.82 min		114.1 Å²		
O=C(O)c1cccnc1 [Nicotinic acid]	2.74 min	2.74 min	121.16 Å²		122.92 Å²	128.31 Å²
CCCCCC/C=C\CCCCCCCC(=O)O [Palmitoleic acid]	1.03 min	0.79 min	173.54 Å²	161.08 Å²	175.21 Å²	
CC(C)(CO)[C@@H](O)C(=O)NCCC(=O)O [Pantothenic acid]	2.08 min	1.96 min	146.44 Å²	144.55 Å²	145.63 Å²	150.01 Å²
O=C(O)CNC(=O)Cc1ccccc1 [Phenylacetylglycine]	2.16 min	2.11 min	146.28 Å²	138.2 Å²	142.08 Å²	
O=C(O)c1cccnc1C(=O)O [Quinolinic acid]	12.7 min	2.56 min	128.56 Å²	130.12 Å²		
Cc1c[nH]c(=O)[nH]c1=O [Thymine]	1.03 min	1.05 min	120.89 Å²	122.06 Å²	120.81 Å²	
O=c1cc[nH]c(=O)[nH]1 [Uracil]	1.08 min	1.08 min	115.77 Å²	120.58 Å²	120.27 Å²	
COc1cc([C@H](O)C(=O)O)ccc1O [Vanillylmandelic acid]	4.41 min	2.72 min	144.75 Å²	135.63 Å²		
Nc1nc2c(ncn2[C@@H]2O[C@@H]3COP(=O)(O)O[C@H]3[C@H]2O)c(=O)[nH]1 [cGMP]	6.9 min	6.92 min	172.34 Å²		171.22 Å²	178.55 Å²
Cc1cccc(O)c1 [m-cresol]	0.75 min	0.77 min	122.73 Å²	123.87 Å²	126.19 Å²	
